According to patent US12415789B2, “Macrocycles comprising a 4-amido-2,4-pentadienoate moiety for the treatment of hypoxic cancers” (Aarhus Universitet, priority 2019, dated 2025):
Where two headings read alike, the source gives them in different places.

What was measured:
Type in all cases: cell-based, human
BxPC3 cells = test: Viability assay (CellTiter Blue), BxPC3 cells, hypoxia vs normoxia; details: for Index [3] Selectivity index (IC50 [2]/IC50 [1]): BxPC3, normoxic IC50 / hypoxic IC50
Protocol: (§1) PANC-1 and HaCat cells (PANC-1: RRID:CVCL 0480, taken from a person, HaCat: RRID:CVCL 0038) were cultured in DMEM (Gibco, Cat #: 21969-035) supplemented with FBS (10%, Gibco, Cat #: A31698-02), Penicillin/Streptomycin (1%, Sigma-Aldrich, Cat #: P0781), and Ala-Gln (200 μM, Sigma-Aldrich, Cat #: G8541). BxPC3 cells (RRID:CVCL 0186, taken from a person) were cultured in RPMI 1640 (Gibco, Cat #: 61870-010) supplemented with FBS (10%) and Penicillin/Streptomycin (1%). U2OS (RRID:CVCL 0042) and HCT116 cells (RRID:CVCL 0291, ATCC CCL-247) were cultured in McCoy's 5A (Sigma cat. no. M9309) supplemented with FBS (10%) and Penicillin/Streptomycin (1%). Cells were grown under normoxic conditions in T75 flasks (Biolite, Thermo Scientific, Cat #: 130190) in a humidified atmosphere with 5% CO2 at 37° C. For hypoxic conditions cells were placed in a modular incubator chamber (MIC-101, Billups-Rothenberg) equipped with a 10-cm dish with milliQ water and flushed with CO2/N2 (5%/95%, BioNERT, AGA Cat #: 100466065) for 8 minutes at 20-25 L/minute. Cells were passaged approximately every third day by trypsination (Sigma-Aldrich, Cat #: T4049) followed by transfer of ⅕^th of the cells to a new flask. All cell cultures were handled aseptically in a laminar air flow bench and grown in sterile-filtered (Jetbiofil, Cat #: FPE204500) medium according to ATCC's recommendations. All human cell lines were correctly identified by short tandem repeat analysis and tested free of mycoplasma contamination by MycoAlert (Lonza, Cat #: LT07-218).
(§2) Cells were seeded in black 96-well plates (2000 cells/well, 75 μL/well, ThermoFisher Scientific, Cat #: 137103) in complete medium. Subsequently, the cells were allowed to adhere to the substratum overnight. The next day, compounds were serially diluted in DMSO as 200× solutions. The 200× solutions of compounds were initially diluted in complete medium to 4× solutions containing 2% DMSO. Finally, the compounds were given to cells by the addition of 25 μL/well in triplicates resulting in 1× solutions of compounds in 100 μL/well. The cells were then incubated under either normoxia or hypoxia. 90 minutes before the end of the experiment, all cells were given CellTiter Blue (20 μL/well, Promega, Cat #: G8080) and reincubated under normoxia for the remaining time of the experiment. The viability of the cells was assessed by measuring fluorescence in a plate reader (ex/em: 552±10/598±10, Tecan Spark 10M). Data were normalized to the two lowest concentrations of compound and fitted to a 4-parameter nonlinear regression in Prism 7.04 for Windows, GraphPad Software, La Jolla Calif. USA. IC50 values were extrapolated as the X value at Y=50%. Results can be found in Table 1 and the corresponding dose-response curves seen in FIGS. 12 to 17 and in FIGS. 9 to 10.

PANC-1 cells = test: Viability assay (CellTiter Blue), PANC-1 cells, hypoxia vs normoxia; details: for Index [3] Selectivity index (IC50 [2]/IC50 [1]): PANC1, normoxic IC50 / hypoxic IC50
Protocol: as §1, §2

HCT116 cells = test: Viability assay (CellTiter Blue), HCT116 cells, hypoxia vs normoxia; details: for Index [3] Selectivity index (IC50 [2]/IC50 [1]): HCT116, normoxic IC50 / hypoxic IC50
Protocol: as §1, §2

HaCat cells = test: Viability assay (CellTiter Blue), HaCat cells, hypoxia vs normoxia; details: for Index [3] Selectivity index (IC50 [2]/IC50 [1]): normoxic IC50 / hypoxic IC50
Protocol: (§3) Cells were seeded in black 96-well plates (2000 cells/well, 75 μL/well, ThermoFisher Scientific, Cat #: 137103) in complete medium. Subsequently, the cells were allowed to adhere to the substratum overnight. The next day, compounds were serially diluted in DMSO as 200× solutions. The 200× solutions of compounds were initially diluted in complete medium to 4× solutions containing 2% DMSO. Finally, the compounds were given to cells by the addition of 25 μL/well in triplicates resulting in 1× solutions of compounds in 100 μL/well. The cells were then incubated under either normoxia or hypoxia. 90 minutes before the end of the experiment, all cells were given CellTiter Blue (20 μL/well, Promega, Cat #: G8080) and reincubated under normoxia for the remaining time of the experiment. The viability of the cells was assessed by measuring fluorescence in a plate reader (ex/em: 552±10/598±10, Tecan Spark 10M). Data were normalized to the two lowest concentrations of compound and fitted to a 4-parameter nonlinear regression in Prism 7.04 for Windows, GraphPad Software, La Jolla Calif. […] IC50 values were extrapolated as the X value at Y=50%.

U2OS cells = test: Viability assay (CellTiter Blue), U2OS cells, hypoxia vs normoxia; details: for Index [3] Selectivity index (IC50 [2]/IC50 [1]): normoxic IC50 / hypoxic IC50
Protocol: as §3

[1] = BxPC3, hypoxic conditions, read-out: IC50 (μM) [1]
[2] = BxPC3, normoxic conditions, read-out: IC50 (μM) [2]
[3] = PANC1, hypoxic conditions, read-out: IC50 (μM) [1]
[4] = PANC1, normoxic conditions, read-out: IC50 (μM) [2]
[5] = HCT116, hypoxic conditions, read-out: IC50 (μM) [1]
[6] = HCT116, normoxic conditions, read-out: IC50 (μM) [2]
[7] = Homo sapiens, hypoxic conditions, read-out: IC50 (μM) [1]
[8] = Homo sapiens, normoxic conditions, read-out: IC50 (μM) [2]
[9] = Homo sapiens, BXPC-3, BxPC3, hypoxic conditions, read-out: IC50 (μM) [1]
[10] = Homo sapiens, BXPC-3, BxPC3, normoxic conditions, read-out: IC50 (μM) [2]
[11] = Homo sapiens, PANC-1, PANC1, hypoxic conditions, read-out: IC50 (μM) [1]
[12] = Homo sapiens, PANC-1, PANC1, normoxic conditions, read-out: IC50 (μM) [2]
[13] = Homo sapiens, HCT-116, HCT116, hypoxic conditions, read-out: IC50 (μM) [1]
[14] = Homo sapiens, HCT-116, HCT116, normoxic conditions, read-out: IC50 (μM) [2]
[15] = hypoxic conditions, read-out: IC50 (μM) [1]
[16] = normoxic conditions, read-out: IC50 (μM) [2]

IC50 (BxPC3 cells; [1]) [µM]	IC50 (BxPC3 cells; [2]) [µM]	IC50 (PANC-1 cells; [3]) [µM]	IC50 (PANC-1 cells; [4]) [µM]	IC50 (HCT116 cells; [5]) [µM]	IC50 (HCT116 cells; [6]) [µM]	SMILES	Index [3] Selectivity index (IC50 [2]/IC50 [1]) (BxPC3 cells)	Index [3] Selectivity index (IC50 [2]/IC50 [1]) (PANC-1 cells)	Index [3] Selectivity index (IC50 [2]/IC50 [1]) (HCT116 cells)	other results
> 50	> 50	> 50	> 50	> 50	> 50	CCCCCCCCCCCCc1ccc2c(c1)OCCNC(=O)CN(C)C(=O)/C=C/C(CO)NC2=O (stereo not shown) [PH462, (E)-16-dodecyl-11-(hydroxymethyl)-7-methyl-3,4,6,7,11,12-hexahydro-benzo[n][1]oxa[4,7,12]triazacyclopentadecine-5,8,13(2H)-trione]	–	–	–	–
6	12.3	2.6	13.7	2.6	8.4	C=C1/C=C/C(=O)N(C)CC(=O)N2CCC[C@H]2COc2cc(CCCCCCCCCCCC)ccc2C(=O)N1 [PH921, (S,E)-16-dodecyl-7-methyl-11-methylene-2,3,6,7,11,12,19,19a-octahydro-1H,5H-benzo[n]pyrrolo[2,1-c][1]oxa[4,7,12]triazacyclo-pentadecine-5,8,13-trione]	2.1	5.3	3.3	–
–	–	2.3	> 28	1.4	> 28	C=C1/C=C/C(=O)N(C)CC(=O)N[C@@H](CC(=O)NC2CC2)COc2cc(CCCCCCCCCCCC)ccc2C(=O)N1 [PH906, (S,E)-N-cyclopropyl-2-(16-dodecyl-7-methyl-11-methylene-5,8,13-trioxo-2,3,4,5,6,7,8,11,12,13-decahydrobenzo[n][1]oxa[4,7,12]-triazacyclopentadecin-3-yl)acetamide]	–	>12.1	>20.7	–
5.5	6.3	5.4	5.8	3.7	3.5	C=C1/C=C/C(=O)N(C)CC(=O)N2CC(F)(F)C[C@H]2COc2cc(CCCCCCCCCCCC)ccc2C(=O)N1 [PH905, (S,E)-16-dodecyl-2,2-difluoro-7-methyl-11-methylene-2,3,6,7,11,12,19,19a-octahydro-1H,5H-benzo[n]pyrrolo[2,1-c][1]oxa-[4,7,12]triazacyclopentadecine-5,8,13-trione]	1.1	1.1	1.0	–
–	–	–	–	–	–	Nc1n[n+]([O-])c2ccccc2[n+]1[O-] [Tirapazamine, reference compound]	2.8	7.1	4.0	IC50 (HaCat cells; [7]): 20 µM; IC50 (HaCat cells; [8]): 106 µM; Index [3] Selectivity index (IC50 [2]/IC50 [1]) (HaCat cells): 5.2; IC50 (BxPC3 cells; [9]): 14 µM; IC50 (BxPC3 cells; [10]): 39 µM; IC50 (U2OS cells; [7]): 98 µM; IC50 (U2OS cells; [8]): 18 µM; Index [3] Selectivity index (IC50 [2]/IC50 [1]) (U2OS cells): 5.5; IC50 (PANC-1 cells; [11]): 11 µM; IC50 (PANC-1 cells; [12]): 76 µM; IC50 (HCT116 cells; [13]): 14.4 µM; IC50 (HCT116 cells; [14]): 58 µM
> 50	> 50	> 50	> 50	14.7	17.4	CCCCCCCCCCCCc1ccc2c(c1)OC[C@H](CCCCNC(=O)OC(C)(C)C)NC(=O)CN(C)C(=O)/C=C/[C@H](CO)NC2=O [PH908, tert-butyl (4-((3S,11R,E)-16-dodecyl-11-(hydroxymethyl)-7-methyl-5,8,13-trioxo-2,3,4,5,6,7,8,11,12,13-decahydrobenzo[n][1]oxa-[4,7,12]triazacyclopentadecin-3-yl)butyl)carbamate]	–	–	1.2	–
> 50	> 50	> 50	> 50	> 50	> 50	CCCCCCCCCCCCc1ccc2c(c1)OC[C@H](CC(=O)OC)NC(=O)CN(C)C(=O)/C=C/[C@H](CO)NC2=O [PH830, Methyl 2-((3S,11R,E)-16-dodecyl-11-(hydroxymethyl)-7-methyl-5,8,13-trioxo-2,3,4,5,6,7,8,11,12,13-decahydrobenzo[n][1]oxa[4,7,12]-triazacyclopentadecin-3-yl)acetate]	–	–	–	–
–	–	3.1	> 50	4.2	> 50	C#CCNC(=O)C[C@H]1COc2cc(CCCCCCCCCCCC)ccc2C(=O)NC(=C)/C=C/C(=O)N(C)CC(=O)N1 [PH845, (S,E)-2-(16-dodecyl-7-methyl-11-methylene-5,8,13-trioxo-2,3,4,5,6,7,8,11,12,13-decahydrobenzo[n][1]oxa[4,7,12]-triazacyclopentadecin-3-yl)-N-(prop-2-yn-1-yl)acetamide]	–	>16.4	>12.4	–
–	–	–	–	–	–	Cn1c(COP(=O)(NCCBr)NCCBr)cnc1[N+](=O)[O-] [TH302, Evofosfamide, reference compound]	3.4	7.2	6.9	IC50 (BxPC3 cells; [9]): 21 µM; IC50 (BxPC3 cells; [10]): 71 µM; IC50 (PANC-1 cells; [11]): 9.4 µM; IC50 (PANC-1 cells; [12]): 69 µM; IC50 (HCT116 cells; [13]): 6.2 µM; IC50 (HCT116 cells; [14]): 43 µM
3.4	4.9	1.8	4.1	0.98	4.2	C=C1C=CC(=O)N(C)CC(=O)NCCOc2cc(CCCCCCCCCCCC)ccc2C(=O)N1 [PH466, (E)-16-dodecyl-7-methyl-11-methylene-3,4,6,7,11,12-hexahydro-benzo[n][1]oxa[4,7,12]triazacyclopentadecine-5,8,13(2H)-trione]	1.4	2.3	4.3	IC50 (HaCat cells; [15]): 3.9 µM; Index [3] Selectivity index (IC50 [2]/IC50 [1]) (HaCat cells): 1.3; IC50 (HaCat cells; [16]): 4.9 µM; IC50 (U2OS cells; [15]): 2.1 µM; Index [3] Selectivity index (IC50 [2]/IC50 [1]) (U2OS cells): 1.8; IC50 (U2OS cells; [16]): 3.8 µM
–	–	7.8	16.3	3.3	16.2	C=C1/C=C/C(=O)N(C)CC(=O)N[C@@H](CC(=O)N2CCOCC2)COc2cc(CCCCCCCCCCCC)ccc2C(=O)N1 [PH741, (S,E)-16-dodecyl-7-methyl-11-methylene-3-(2-morpholino-2-oxoethyl)-3,4,6,7,11,12-hexahydrobenzo[n][1]oxa[4,7,12]triazacyclopentadecine-5,8,13(2H)-trione]	–	2.1	4.9	–
–	–	4.3	23.3	5	5.6	C=C1/C=C/C(=O)N(C)CC(=O)N[C@@H](CC(=O)OC)COc2cc(CCCCCCCCCCCC)ccc2C(=O)N1 [PH832, Methyl (S,E)-2-(16-dodecyl-7-methyl-11-methylene-5,8,13-trioxo-2,3,4,5,6,7,8,11,12,13-decahydrobenzo[n][1]oxa[4,7,12]-triazacyclopentadecin-3-yl)acetate]	–	5.4	1.1	–
